A value given as a limit tells only on which side of the number the result lay.

Data set [1] deals with non-reducing saccharide-forming enzyme. It is filed as biochemical, Rhizobium sp. M-11. To be noted: for Percentage of remaining substrate on HPLC: non-reducing saccharide-forming enzyme, 48 h, pH 7; for Percentage of newly formed product (P I to P V) on HPLC: 20 w/v % substrate, 2 units/g, 40°C., pH 7.0, 48 hours, label = substrate. As to the method: An aqueous solution containing 20 w/v % glucose, maltose, maltotriose, maltotetraose, maltopentaose, maltohexaose or maltoheptaose as a substrate was prepared, and mixed with 2 units/g substrate, d.s.b., of the purified enzyme preparation obtained in Experiment 2, and the resultant mixture was subjected to an enzymatic reaction at 40° C. and pH 7.0 for 48 hours. The reaction mixture was desalted and analyzed on high-performance liquid chromatography (HPLC) using "WAKOBEADS WB-T-330 COLUMN", a product of Wako Pure Chemical Industries Ltd., Tokyo, Japan. The HPLC procedure was conducted at ambient temperature and a flow rate of 0.5 ml/min of water as an eluent, and "RI-8012", a differential refractometer commercialized by Tosho Corporation, Tokyo, Japan, was used for analyzing reaction products.

The nature of data set [2]: Maillard reaction with glycine, absorbance at 480 nm. It is filed as physicochemical. The following applies: for Coloration degree (480 nm): one % glycine, 10% saccharide, pH 7.0, 100°C., 90 min, 1-cm cell. As to the method: A solution, containing one % glycine and 10% of a saccharide preparation PI, P II, P III, P IV or P V in Experiment 4 and 50 mM phosphate buffer (pH 7.0), was kept at 100° C. for 90 min, followed by cooling the resultant solution, and determining for absorbance at a wave length of 480 nm in a 1-cm cell. As a control, maltotriose, maltotetraose, maltopentaose, maltohexaose and maltoheptaose, as a material for the saccharide preparations, were similarly treated as above, and measured for absorbance at a wave length of 480 nm.
A solution, containing one % of glycine, 10% of a high-purity trehalose preparation with a purity of 99.5%, d.s.b., obtained by the method in Experiment 17, and 50 mM phosphate buffer (pH 7.0), was kept at 100° C. for 90 min, followed by cooling the resultant solution and determining the absorbance at a wave length of 480 nm in a 1-cm cell. As a control, glucose and maltose were similarly treated as above, and the resultants were determined for absorbance at a wave length of 480 nm.

Data set [3] in a line: Reducing power on the Somogyi-Nelson's method expressed by DE. In kind it is physicochemical. To be noted: d.s.b. The protocol: The reducing powders of these novel high-purity saccharides were determined on the Somogyi-Nelson's method and expressed by DE.
A further data set deals with glucoamylase. As to the kind of experiment: Enzymatic hydrolysis by glucoamylase. In kind it is biochemical. The protocol: Fifty mg aliquots of non-reducing saccharide preparations P I, P II, P III, P IV and P V in Experiment 4 were respectively dissolved in one ml of 50 mM acetate buffer (pH 4.5), admixed with one unit of glucoamylase commercialized by Seikagaku-Kogyo Co., Ltd., Tokyo, Japan, to effect enzymatic hydrolysis at 40° C. for 6 hours. HPLC analysis only detected glucose and trehalose in all resultant mixtures. The percentages and the molecular ratios of glucose to trehalose in each saccharide are in Table 5.

In another data set the test system is β-amylase. As to the kind of experiment: Hydrolysis by β-amylase. In kind it is biochemical.
The subject of the next data set is α-amylase. As to the kind of experiment: Hydrolysis by α-amylase derived from pig pancreas. It is filed as in vitro ADME. As to the method: (§1) The enzymatic reaction with the α-amylase was as follows: Dissolve 10 mg of a substrate in one ml of 50 mM phosphate buffer (pH 6.9), mix the resultant solution with one unit of the α-amylase, and incubate the resultant mixture at 37° C. for 18 hours. The enzymatic reaction with the α-glucosidase was conducted under the same conditions as in the case of α-amylase except that 50 mM acetate buffer (pH 4.0) was used as a buffer. The enzymatic reaction using the rat intestinal acetone powder was carried out under the same conditions as in the case of α-amylase except that 50 mM maleate buffer (pH 6.0) was used as a buffer. The saccharide compositions obtained by the α-amylase, α-glucosidase and rat intestinal acetone powder are respectively in Tables 6, 7 and 8.

Another data set concerns α-glucosidase. Nature of the data set: Hydrolysis by α-glucosidase derived from rice. In kind it is biochemical. The following applies: pH 4.0, 37°C., 18 hours. As to the method: as §1
The nature of data set [4]: Hydrolysis by rat intestinal acetone powder. In kind it is in vitro ADME. The following applies: pH 6.0, 37°C., 18 hours. As to the method: as §1
The nature of data set [5]: Acute toxicity test (Experiment 8). The following applies: mouse, in vivo, po. From the text: (§2) By using 7-week old dd-strain mice, the non-reducing saccharide preparation P I, P II, P III, P IV or P V was orally administered to the mice for acute toxicity test.
The subject of another data set is mice. Nature of the data set: Acute toxicity test (Experiment 8). To be noted: oral, highest possible doses.
Source text: as §2

Data set [6] deals with T1, trehalose-releasing enzyme (Rhizobium sp. M-11, UniProt Q53238).
T1 construct: M-11 culture
T1 sequence (Q53238 1-596): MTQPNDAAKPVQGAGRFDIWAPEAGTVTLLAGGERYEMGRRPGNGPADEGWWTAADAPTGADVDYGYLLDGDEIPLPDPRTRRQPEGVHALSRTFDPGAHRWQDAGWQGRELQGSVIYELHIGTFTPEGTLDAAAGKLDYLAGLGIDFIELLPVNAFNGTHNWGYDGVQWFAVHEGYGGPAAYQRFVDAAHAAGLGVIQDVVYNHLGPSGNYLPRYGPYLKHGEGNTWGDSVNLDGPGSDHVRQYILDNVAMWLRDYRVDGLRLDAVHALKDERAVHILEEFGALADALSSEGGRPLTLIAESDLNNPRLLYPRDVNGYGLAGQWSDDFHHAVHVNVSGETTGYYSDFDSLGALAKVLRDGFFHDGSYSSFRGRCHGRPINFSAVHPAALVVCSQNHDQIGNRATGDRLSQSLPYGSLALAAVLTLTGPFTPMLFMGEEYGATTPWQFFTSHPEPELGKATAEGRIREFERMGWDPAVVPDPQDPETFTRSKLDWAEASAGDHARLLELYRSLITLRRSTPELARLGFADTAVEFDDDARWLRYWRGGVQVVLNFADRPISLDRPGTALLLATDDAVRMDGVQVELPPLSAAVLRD
Nature of the data set: Action of trehalose-releasing enzyme on α-glycosyltrehalose and maltooligosaccharides (Table 13). To be noted: 20% substrate, 2 units/g, 40°C., pH 7.0, 48 hours; label = substrate. In kind it is biochemical. The protocol: An aqueous solution containing 20%, d.s.b., of one of the above 5 non-reducing saccharide preparations, namely α-glycosyltrehalose preparations, was prepared, followed by mixing it with 2 units/g substrate, d.s.b., of the purified trehalose-releasing enzyme obtained in Experiment 15, and subjecting the resultant to an enzymatic reaction at 40° C. and pH 7.0 for 48 hours. The resultant each reaction mixture was desalted, and analyzed for saccharide composition on HPLC using "WAKOBEADS WB-T-330 column", a column of Wako Pure Chemical Industries Ltd., Tokyo, Japan. As a control, a fresh preparation of the same trehalose-releasing enzyme was allowed to act on maltotriose, maltotetraose, maltopentaose, maltohexaose or maltoheptaose, and the resultant each reaction mixture was analyzed for saccharide composition on HPLC.

Setting [7] is: one unit glucoamylase, pH 4.5, 40°C., 6 hours.
The mark [8] stands for this setting: one unit, pH 6.9, 37°C., 18 hours.

As to `OC[C@H]1O[C@H](O[C@H]2[C@H](O)[C@@H](O)C(O)O[C@@H]2CO)[C@H](O)[C@@H](O)[C@@H]1O` (mixture of isomers) [Maltose], in data set [1], the “Formation of saccharide from substrate” value is given as “no saccharide is formed” and the “Percentage of remaining substrate on HPLC” value was 100.0%. Further, the “Coloration degree (480 nm)” value in data set [2] is recorded as 0.926.
For the compound `OC[C@H]1OC(O)[C@H](O)[C@@H](O)[C@@H]1O` (stereo partly drawn) [Glucose], in data set [1], the “Formation of saccharide from substrate” value is reported as “no saccharide is formed” and the “Percentage of remaining substrate on HPLC” value is 100.0%. In addition, the “Coloration degree (480 nm)” value in data set [2] is recorded as 1.671.
`OC[C@H]1O[C@H](O[C@H]2[C@H](O)[C@@H](O)[C@@H](O[C@H]3[C@H](O)[C@@H](O)[C@@H](O[C@H]4[C@H](O)[C@@H](O)[C@@H](O[C@H]5[C@H](O)[C@@H](O)[C@@H](O[C@H]6[C@H](O)[C@@H](O)[C@@H](O[C@H]7[C@H](O)[C@@H](O)C(O)O[C@@H]7CO)O[C@@H]6CO)O[C@@H]5CO)O[C@@H]4CO)O[C@@H]3CO)O[C@@H]2CO)[C@H](O)[C@@H](O)[C@@H]1O` (stereo partly drawn) [Maltoheptaose]: in data set [1], the “Percentage of newly formed product (P I to P V) on HPLC” value (“Percentage … (P I to P V) on HPLC” for short) is on record as 93.4% and the “Percentage of remaining substrate on HPLC” value came to 6.7%. For the same compound, in data set [2], the “Coloration degree (480 nm)” value amounted to 0.271.
Taken in the same sequence, the figures for `OC[C@H]1O[C@H](O[C@H]2[C@H](O)[C@@H](O)[C@@H](O[C@H]3[C@H](O)[C@@H](O)[C@@H](O[C@H]4[C@H](O)[C@@H](O)[C@@H](O[C@H]5[C@H](O)[C@@H](O)[C@@H](O[C@H]6[C@H](O)[C@@H](O)C(O)O[C@@H]6CO)O[C@@H]5CO)O[C@@H]4CO)O[C@@H]3CO)O[C@@H]2CO)[C@H](O)[C@@H](O)[C@@H]1O` (stereo partly drawn) [Maltohexaose] were 93.5%, 6.5% and 0.318.
Taken in the same sequence, the figures for `OC[C@H]1O[C@H](O[C@H]2[C@H](O)[C@@H](O)[C@@H](O[C@H]3[C@H](O)[C@@H](O)[C@@H](O[C@H]4[C@H](O)[C@@H](O)[C@@H](O[C@H]5[C@H](O)[C@@H](O)C(O)O[C@@H]5CO)O[C@@H]4CO)O[C@@H]3CO)O[C@@H]2CO)[C@H](O)[C@@H](O)[C@@H]1O` (stereo partly drawn) [Maltopentaose] were 92.7%, 7.3% and 0.369.
Turning to `OC[C@H]1O[C@H](O[C@H]2[C@H](O)[C@@H](O)[C@@H](O[C@H]3[C@H](O)[C@@H](O)[C@@H](O[C@H]4[C@H](O)[C@@H](O)C(O)O[C@@H]4CO)O[C@@H]3CO)O[C@@H]2CO)[C@H](O)[C@@H](O)[C@@H]1O` (stereo partly drawn) [Maltotetraose], in [1], the “Percentage … (P I to P V) on HPLC” value came to 85.6% and the “Percentage of remaining substrate on HPLC” value is 14.4%. Also, the “Coloration degree (480 nm)” value in data set [2] is listed as 0.475.
Take `OC[C@H]1O[C@H](O[C@H]2[C@H](O)[C@@H](O)[C@@H](O[C@H]3[C@H](O)[C@@H](O)C(O)O[C@@H]3CO)O[C@@H]2CO)[C@H](O)[C@@H](O)[C@@H]1O` (stereo partly drawn) [Maltotriose]: in [1], the “Percentage … (P I to P V) on HPLC” value is 35.0% and the “Percentage of remaining substrate on HPLC” value is reported as 65.0%. Further, the “Coloration degree (480 nm)” value in [2] came out at 0.623.
For `OC[C@H]1O[C@H](O[C@H]2O[C@H](CO)[C@@H](O[C@H]3O[C@H](CO)[C@@H](O)[C@H](O)[C@H]3O)[C@H](O)[C@H]2O)[C@H](O)[C@@H](O)[C@@H]1O` [P I, α-glucosyltrehalose], the “DE (reducing power)” value in data set [3] is 0.83. For the same compound, in data set [2], the “Coloration degree relative to corresponding material maltooligosaccharides” value was 3-6% and the “Coloration degree (480 nm)” value came out at 0.027. Further, the “Hydrolysis by glucoamylase” value with glucoamylase was “hydrolyzed into one glucose molecule and one trehalose molecule”. Moreover, in the data set with glucoamylase (setting [7]), the Glucose is 36.2%, the “Molecular ratio (Glucose/Trehalose)” value came out at 1.07 and the Trehalose was 63.8%. In addition, the “Hydrolysis by β-amylase” value with β-amylase is reported as “not hydrolyzed”. In addition, the “Hydrolysis by α-amylase” value in the data set with α-amylase is “not substantially hydrolyzed”. In the data set on α-amylase (setting [8]), the “Saccharide composition of hydrolysate by α-amylase: G1 (glucose)” value was found to be 0, the “Saccharide composition of hydrolysate by α-amylase: G2 (maltose)” value is listed as 0.4, the “Saccharide composition of hydrolysate by α-amylase: G3 (maltotriose)” value is 2.3 and the “Saccharide composition of hydrolysate by α-amylase: P I” value amounted to 97.3. Also, the “Saccharide composition of hydrolysate by α-amylase: P II” value with α-amylase (setting [8]) is 0. In the data set with α-glucosidase, the “Saccharide composition of hydrolysate by α-glucosidase: Glucose” value was 36.5%, the “Saccharide composition of hydrolysate by α-glucosidase: Other saccharides” value was found to be 0.5% and the “Saccharide composition of hydrolysate by α-glucosidase: Trehalose” value was found to be 63.0%. Moreover, in data set [4], the “Saccharide composition of hydrolysate by rat intestinal acetone powder: Glucose” value was found to be 37.2%, the “Saccharide composition of hydrolysate by rat intestinal acetone powder: Other saccharides” value was found to be 0.4% and the “Saccharide composition of hydrolysate by rat intestinal acetone powder: Trehalose” value is recorded as 62.4%. In addition, in [5], the LD50 was no less than 50000 mg/kg. Besides, the Mortality entry in the data set on mice was “no mouse died”. For the same compound, in data set [6], the “Percentage of reducing saccharide released (glucose, maltose, maltotriose, maltotetraose or maltopentaose)” value was determined as 6.5% and the “Percentage of trehalose released” value came out at 17.5%.
